Results on one substance are retold here after patent US20250263439A1, “HETERODIMERIC PEPTIDE REAGENTS AND METHODS” (REGENTS OF THE UNIVERSITY OF MICHIGAN, priority 2018, published 2025).

This assay concerns EGFR and/or ErbB2 in SKBr3 cells. As to the kind of experiment: Co-localization of Cy5.5 heterodimer with anti-EGFR and anti-ErbB2 antibodies on SKBr3 cells. The note with it: confocal microscopy. The class given is cell-based, human. As for the experimental part:
Co-localization experiments were performed to validate specific heterodimer binding to EGFR and/or ErbB2 in SKBr3 cells. Cells were cultured to about 70% confluence on glass coverslips, washed with PBS, and incubated with 2% BSA in PBS for 30 min to block non-specific binding. 1 μM of Cy5.5-labeled peptides were added and incubated for 30 min or 1 hour at 4° C. The cells were then washed 3× with PBS, fixed with ice cold 4% paraformaldehyde (PFA) for 10 min, washed with PBS 1×, and then mounted on glass slides with ProLong Gold reagent containing DAPI (Invitrogen).
For antibody staining, cells were incubated with either anti-EGFR (1:500, #2232S) or anti-ErbB2 (1:500, #29D8) primary antibody from Cell Signaling Inc overnight at 4° C. after fixation, and then washed with PBS 3× and processed with secondary antibody staining. Either goat anti-rabbit IgG (H+L) labeled with Alexa-Fluor 488 (1:1000, #A-11008, Invitrogen) or goat anti-mouse IgG (H&L) labeled with Alexa-Fluor 568 (1:1000, #ab175473, Abcam) was added and incubated for 1 hour at room temperature (RT). The cells were washed with PBS 3×, and mounted onto glass coverslips. Confocal fluorescence images were collected using DAPI, AF488, AF568 and Cy5.5 filter sets. Fluorescence intensities from 3 independent images were quantified using custom Matlab (Mathworks) software.

With “heterodimer of QRHKPRE (SEQ ID NO: 1) and KSPNPRF (SEQ ID NO: 2) with E3 (triethyleneglycol) linker, Cy5.5 label [QRH*-KSP*-E3-Cy5.5]”, the “binding to surface of SKBr3 cells” value was “bind strongly”.
